# Results as given in US10112941B2, “Tricyclic compounds as anticancer agents” (BRISTOL-MYERS SQUIBB COMPANY, priority 2013, dated 2018).
# Like-named read-outs stand apart in the source and are kept apart here.
# Target: BRD4 (Homo sapiens, UniProt O60885)
# Assay: Time Resolved Fluorescence Resonance Energy Transfer (TR-FRET) binding assay, BRD4
# Settings: one of the FRET assays described
SMILES,IC50 (read-out: FRET BRD4 IC50),IC50 (FRET BRD4 IC50 (nM))
"Cc1cccc(C(C2CCOCC2)n2c3cc(C(C)(C)O)ccc3c3ncc(-c4c(C)nnn4C)cc32)n1 (single isomer, unassigned) [Example 295]",< 5 nM,
"[2H]C([2H])([2H])c1nnn(C)c1-c1cnc2c3c(F)cc(S(C)(=O)=O)cc3n([C@H](c3ccccc3)C3CCOCC3)c2c1 [Example 195, 5-{9-Fluoro-7-methanesulfonyl-5-[(S)-oxan-4-yl(phenyl)methyl]-5H-pyrido[3,2-b]indol-3-yl}-4-(^2H3)methyl-1-methyl-1H-1,2,3-triazole]",< 5 nM,
"Cc1noc(C)c1-c1cnc2c3ccc(C(C)(C)O)c(F)c3n(C(c3ccc(F)cc3)C3CCOCC3)c2c1 (single isomer, unassigned) [Example 81, 2-[3-(Dimethyl-1,2-oxazol-4-yl)-6-fluoro-5-[(4-fluorophenyl)(oxan-4-yl)methyl]-5H-pyrido[3,2-b]indol-7-yl]propan-2-ol]",< 5 nM,
"Cc1nnn(C)c1-c1cnc2c3ccc(C(C)(C)O)cc3n(C(c3cccc(F)c3)C3CCOCC3)c2c1 (single isomer, unassigned) [Example 101, 2-[3-(Dimethyl-1H-1,2,3-triazol-5-yl)-5-[(3-fluorophenyl)(oxan-4-yl)methyl]-5H-pyrido[3,2-b]indol-7-yl]propan-2-ol]",< 25 nM,
"Cc1cnn(C)c1-c1cnc2c3ccc(S(C)(=O)=O)cc3n([C@H](c3ccccc3)C3CCOCC3)c2c1 [Example 417, 5-{7-Methanesulfonyl-5-[(S)-oxan-4-yl(phenyl)methyl]-5H-pyrido[3,2-b]indol-3-yl}-1,4-dimethyl-1H-pyrazole]",< 5 nM,
"Cc1nnn(C)c1-c1cnc2c3cc(F)c(C(C)(O)C4CC4)c(F)c3n([C@H](c3ccccc3)C3CCOCC3)c2c1 (single isomer, unassigned) [Example 450]",< 5 nM,
"[2H]C([2H])([2H])c1onc(C)c1-c1cnc2c3ccc(C(C)(C)O)cc3n(C([2H])(c3ccncc3F)C3CCOCC3)c2c1 (stereo not drawn) [Example 344, 2-{5-[(3-Fluoropyridin-4-yl)(oxan-4-yl)(^2H)methyl]-3-[5-(^2H3)methyl-3-methyl-1,2-oxazol-4-yl]-5H-pyrido[3,2-b]indol-7-yl}propan-2-ol]",< 5 nM,
"[2H]C([2H])([2H])c1nnn(C)c1-c1cnc2c3ccc(C(C)(C)O)cc3n(C(c3ccc(F)cc3F)C3CCOCC3)c2c1 (stereo not drawn) [Example 281, 2-{5-[(2,4-Difluorophenyl)(oxan-4-yl)methyl]-3-[4-(^2H3)methyl-1-methyl-1H-1,2,3-triazol-5-yl]-5H-pyrido[3,2-b]indol-7-yl}propan-2-ol]",< 5 nM,
"[2H]C([2H])([2H])c1nnn(C)c1-c1cnc2c3c(OC)cc(C(C)(C)O)cc3n(C(c3ccncc3F)C3CCOCC3)c2c1 (stereo not drawn) [Example 348, 2-{5-[(3-Fluoropyridin-4-yl)(oxan-4-yl)methyl]-9-methoxy-3-[4-(^2H3)methyl-1-methyl-1H-1,2,3-triazol-5-yl]-5H-pyrido[3,2-b]indol-7-yl}propan-2-ol]",< 5 nM,
"Cc1nnn(C)c1-c1cnc2c3ccc(C(C)(O)C4CC4)c(F)c3n([C@H](c3ccccc3)C3CCOCC3)c2c1 (stereo partly drawn) [Example 415, 1-Cyclopropyl-1-{6-fluoro-3-[4-(^2H3)methyl-1-methyl-1H-1,2,3-triazol-5-yl]-5-[(S)-oxan-4-yl(phenyl)methyl]-5H-pyrido[3,2-b]indol-7-yl}ethan-1-ol]",< 5 nM,
"Cc1noc(C)c1-c1cnc2c3ccc(C4(O)COC4)cc3n([C@H](c3ccccc3)C3CCOCC3)c2c1 [Example 244, 3-[3-(Dimethyl-1,2-oxazol-4-yl)-5-[(S)-oxan-4-yl(phenyl)methyl]-5H-pyrido[3,2-b]indol-7-yl]oxetan-3-ol]",< 5 nM,
"Cc1nnn(C)c1-c1cnc2c3ccc(C(C)(C)O)cc3n(C(c3c(F)cc(F)cc3F)C3CCOCC3)c2c1 (single isomer, unassigned) [Example 103, 2-[3-(Dimethyl-1H-1,2,3-triazol-5-yl)-5-[oxan-4-yl(2,4,6-trifluorophenyl)methyl]-5H-pyrido[3,2-b]indol-7-yl]propan-2-ol]",< 5 nM,
"C=C(C)c1ccc2c3ncc(-c4c(C)nnn4C)cc3n([C@H](c3ccccc3)C3CCOCC3)c2c1 [Example 420, 1,4-Dimethyl-5-{5-[(S)-oxan-4-yl(phenyl)methyl]-7-(prop-1-en-2-yl)-5H-pyrido[3,2-b]indol-3-yl}-1H-1,2,3-triazole]",< 5 nM,
"Cc1noc(C)c1-c1cnc2c3ccc(C(C)(C)O)cc3n(C(c3ccccc3)c3cscn3)c2c1 (single isomer, unassigned) [Example 29, 2-[3-(Dimethyl-1,2-oxazol-4-yl)-5-[phenyl(1,3-thiazol-4-yl)methyl]-5H-pyrido[3,2-b]indol-7-yl]propan-2-ol]",< 5 nM,
Cc1noc(C)c1-c1cnc2c3ccc(C(C)(C)O)cc3n([C@@H](CCC(F)(F)F)c3ccccc3)c2c1 [Example 9],< 5 nM,
"[2H]C([2H])([2H])c1nnn(C)c1-c1cnc2c3c(OC)ccc(S(C)(=O)=O)c3n([C@H](c3ccc(F)cc3)C3CCOCC3)c2c1 [Example 191, 5-{5-[(S)-(4-Fluorophenyl)(oxan-4-yl)methyl]-6-methanesulfonyl-9-methoxy-5H-pyrido[3,2-b]indol-3-yl}-4-(^2H3)methyl-1-methyl-1H-1,2,3-triazole]",< 5 nM,
"[2H]C([2H])([2H])c1nnn(C)c1-c1cnc2c3cc(F)c(C(C)(O)C4CC4)cc3n([C@H](c3ccccc3)C3CCOCC3)c2c1 (stereo partly drawn) [Example 445, 1-Cyclopropyl-1-{8-fluoro-3-[4-(^2H3)methyl-1-methyl-1H-1,2,3-triazol-5-yl]-5-[(S)-oxan-4-yl(phenyl)methyl]-5H-pyrido[3,2-b]indol-7-yl}ethan-1-ol]",< 5 nM,
"[2H][C@@](c1ccccc1)(C1CCOCC1)n1c2cc(C(C)(C)O)ccc2c2ncc(-c3c(C)nnn3C)cc21 [Example 90, 2-[3-(Dimethyl-1H-1,2,3-triazol-5-yl)-5-[(S)-oxan-4-yl(phenyl)(^2H)methyl]-5H-pyrido[3,2-b]indol-7-yl]propan-2-ol]",< 5 nM,
"Cn1nnc(Cl)c1-c1cnc2c3ccc(C(C)(C)O)cc3n([C@H](c3ccccc3)C3CCOCC3)c2c1 [Example 387, 2-[3-(4-Chloro-1-methyl-1H-1,2,3-triazol-5-yl)-5-[(S)-oxan-4-yl(phenyl)methyl]-5H-pyrido[3,2-b]indol-7-yl]propan-2-ol]",,< 5 nM
"[2H]C([2H])([2H])c1nnn(C)c1-c1cnc2c3c(F)cc(S(C)(=O)=O)cc3n(C(c3ncccc3F)C3CCC(F)(F)CC3)c2c1 (stereo not drawn) [Example 212, 2-[(4,4-Difluorocyclohexyl)({9-fluoro-7-methanesulfonyl-3-[4-(^2H3)methyl-1-methyl-1H-1,2,3-triazol-5-yl]-5H-pyrido[3,2-b]indol-5-yl})methyl]-3-fluoropyridine]",< 5 nM,
"Cc1nnn(C)c1-c1cnc2c3ccc(C(C)(C)NC(=O)CN(C)C)cc3n(C(c3ccccc3)C3CCOCC3)c2c1 (single isomer, unassigned) [Example 168, N-{2-[3-(Dimethyl-1H-1,2,3-triazol-5-yl)-5-[oxan-4-yl(phenyl)methyl]-5H-pyrido[3,2-b]indol-7-yl]propan-2-yl}-2-(dimethylamino)acetamide]",< 5 nM,
"[2H]C([2H])([2H])c1nnn(C)c1-c1cnc2c3ccc(C(C)(C)O)c(F)c3n(C(c3ccc(F)cn3)C3CCOCC3)c2c1 (single isomer, unassigned) [Example 324]",< 25 nM,
"Cc1nnn(C)c1-c1cnc2c3ccc(C(C)(C)O)cc3n(C(c3ccc(F)cc3F)C3CCOCC3)c2c1 (single isomer, unassigned) [Example 136, 2-{5-[(2,4-Difluorophenyl)(oxan-4-yl)methyl]-3-(dimethyl-1H-1,2,3-triazol-5-yl)-5H-pyrido[3,2-b]indol-7-yl}propan-2-ol]",< 5 nM,
"Cc1nnn(C)c1-c1cnc2c3cc(C(C)(C)O)ccc3n([C@H](c3ccc(F)cc3)C3CCOCC3)c2c1 [Example 176, 2-[3-(Dimethyl-1H-1,2,3-triazol-5-yl)-5-[(S)-(4-fluorophenyl)(oxan-4-yl)methyl]-5H-pyrido[3,2-b]indol-8-yl]propan-2-ol]",< 5 nM,
"Cc1nnn(C)c1-c1cnc2c3ccc(C(C)(C)O)cc3n(C(c3c(F)cc(F)cc3F)C3CCOCC3)c2c1 (single isomer, unassigned) [Example 102, 2-[3-(Dimethyl-1H-1,2,3-triazol-5-yl)-5-[oxan-4-yl(2,4,6-trifluorophenyl)methyl]-5H-pyrido[3,2-b]indol-7-yl]propan-2-ol]",< 5 nM,
"Cc1noc(C)c1-c1cnc2c3ccc(S(C)(=O)=O)cc3n([C@H](c3ccccc3)C3CCOCC3)c2c1 [Example 171, 4-{7-Methanesulfonyl-5-[(S)-oxan-4-yl(phenyl)methyl]-5H-pyrido[3,2-b]indol-3-yl}-3,5-dimethyl-1,2-oxazole]",< 5 nM,
"Cc1nnn(C)c1-c1cnc2c3ccc(C(C)(O)C4CC4)c(F)c3n([C@H](c3ccccc3)C3CCOCC3)c2c1 (stereo partly drawn) [Example 416, 1-Cyclopropyl-1-{6-fluoro-3-[4-(^2H3)methyl-1-methyl-1H-1,2,3-triazol-5-yl]-5-[(S)-oxan-4-yl(phenyl)methyl]-5H-pyrido[3,2-b]indol-7-yl}ethan-1-ol]",< 5 nM,
"Cc1nnn(C)c1-c1cnc2c3cc(C(=O)N4CC(C)(O)C4)ccc3n([C@H](c3ccccc3)C3CCOCC3)c2c1 [Example 427, 1-[3-(Dimethyl-1H-1,2,3-triazol-5-yl)-5-[(S)-oxan-4-yl(phenyl)methyl]-5H-pyrido[3,2-b]indole-8-carbonyl]-3-methylazetidin-3-ol]",< 5 nM,
Cc1noc(C)c1-c1cnc2c3ccc(C(C)(C)O)cc3n([C@@H](c3ccc(F)cc3)C3CCOC(C)(C)C3)c2c1 (stereo partly drawn) [Example 18],< 1500 nM,
"[2H]C([2H])([2H])c1nnn(C)c1-c1cnc2c3c(OCC(F)F)ccc(S(C)(=O)=O)c3n(C(c3ncccc3F)C3CCOCC3)c2c1 (stereo not drawn) [Example 246, 2-{[9-(2,2-Difluoroethoxy)-6-methanesulfonyl-3-[4-(^2H3)methyl-1-methyl-1H-1,2,3-triazol-5-yl]-5H-pyrido[3,2-b]indol-5-yl](oxan-4-yl)methyl}-3-fluoropyridine]",< 1500 nM,
